# Assay results from patent publication US20020137929A1, “1 - (3-heterocyclylphenyl) isothiourea, -isourea, -guanidine and -amidine herbicidal agents” (Intellectual Property Department, BASF Aktiengesellschaft, priority 1998, published 2002).
# Legend:
# [1] = system: CASOB (Sicklepod); experiment: Postemergence herbicidal evaluation; assay type: in vivo, Cassia obtusifolia; conditions: for CASOB herbicidal rating: postemergence
# How it was run: (§1)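 Rate range approx. 0.0156–0.500 kg/ha. Foliar application at 40 psi to ~2-week seedlings; surfactant 0.5% TWEEN 20 in 50/50 acetone/water. Evaluation 4–5 wk post-treatment by 0–9 visual injury score, means of replicate tests.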
# [2] = system: GALAP (Galium); experiment: Postemergence herbicidal evaluation; assay type: in vivo, Galium aparine; conditions: for GALAP herbicidal rating: postemergence
# How it was run: as §1
# [3] = system: ZEAMX (Corn, Field); experiment: Postemergence herbicidal evaluation; assay type: in vivo, Zea mays; conditions: for ZEAMX herbicidal rating: postemergence
# How it was run: as §1
# [4] = system: AMBEL (Ragweed, Common); experiment: Preemergence herbicidal evaluation; assay type: in vivo, Ambrosia artemisifolia; conditions: rated 4-5 weeks after treatment
# How it was run: (§2)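 Scores use a 0–9 visual scale covering stand, vigor, malformation, size and chlorosis relative to controls, rated four to five weeks after treatment. Before emergence, soil-planted seeds were sprayed with compound in aqueous acetone at roughly 0.0156–0.500 kg/ha and held in the greenhouse.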
# [5] = system: CHEAL (Lambsquarters, Common); experiment: Preemergence herbicidal evaluation; assay type: in vivo, Chenopodium album; conditions: rated 4-5 weeks after treatment
# How it was run: as §2
# [6] = system: IPOHE (Morningglory, Ivyleaf); experiment: Preemergence herbicidal evaluation; assay type: in vivo, Ipomoea hederacea; conditions: rated 4-5 weeks after treatment
# How it was run: as §2
# [7] = system: ORYSAT (Rice, Tebonnet); experiment: Preemergence herbicidal evaluation; assay type: in vivo, Oryza sativa, (L.) Tebonnet; conditions: rated 4-5 weeks after treatment
# How it was run: as §2
# [8] = system: TRZAWR (Wheat, Winter, cv Riband); experiment: Preemergence herbicidal evaluation; assay type: in vivo, Triticum aestivum; conditions: rated 4-5 weeks after treatment
# How it was run: as §2
# [9] = system: ZEAMX (Corn, Field); experiment: Preemergence herbicidal evaluation; assay type: in vivo, Zea mays; conditions: rated 4-5 weeks after treatment
# How it was run: as §2
# [10] = system: ECHORC (Watergrass (Calif.)); experiment: Preemergence weed control under flooded paddy conditions; assay type: in vivo, Echinochloa oryzoides; conditions: rated 3-4 weeks after treatment
# How it was run: (§3)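 Visual injury scored 0-9 against control three to four weeks post-treatment, greenhouse-grown. Application: acetone/water (50/50) solutions dosed directly into flood water (1.5-3 cm over silt loam, planted top 0.5 cm), roughly 0.0313 to 0.500 kg/ha active ingredient.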
# [11] = system: CYPIR (Rice Flatsedge); experiment: as above; assay type: in vivo, Cyperus iria; conditions: rated 3-4 weeks after treatment
# How it was run: as §3
# [12] = system: CYPSE (Flatsedge); experiment: as above; assay type: in vivo, Cyperus serotinus; conditions: rated 3-4 weeks after treatment
# How it was run: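 Seeds or propagules sown in silt loam kept flooded 1.5-3 cm; compounds in 50/50 acetone/water pipetted into flood water at about 0.0313 to 0.500 kg/ha. Greenhouse; visual 0-9 rating versus untreated control 3-4 weeks after treatment.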
# [13] = system: ECHORC (Watergrass (Calif.)); experiment: Postemergence weed control under flooded paddy conditions; assay type: in vivo, Echinochloa oryzoides; conditions: postemergence weeds
# How it was run: (§4)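 Herbicidal effect is judged by eye on a 0–9 scale versus control, 3–4 weeks after dosing. Dosing is into flood water kept 1.5–3 cm over the soil, at about 0.0313–0.500 kg/ha in aqueous/acetone 50/50 v/v, on 3–5 cm weeds and 1.5–2.5-leaf rice seedlings.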
# [14] = system: CYPSE (Flatsedge); experiment: as above; assay type: in vivo, Cyperus serotinus; conditions: postemergence weeds
# How it was run: as §4
# [15] = Rate 0.0313 kg/ha, rated 3 to 4 weeks after treatment
# [16] = Rate 0.0625 kg/ha, rated 3 to 4 weeks after treatment
# [17] = Rate 0.1250 kg/ha, rated 3 to 4 weeks after treatment
# [18] = Rate 0.2500 kg/ha, rated 3 to 4 weeks after treatment
# [19] = rate 0.0313 kg/ha, 3-4 weeks after treatment
# [20] = rate 0.0625 kg/ha, 3-4 weeks after treatment
# [21] = rate 0.1250 kg/ha, 3-4 weeks after treatment
# [22] = rate 0.2500 kg/ha, 3-4 weeks after treatment
smiles,measurement,setting,value
"CCOC(=O)[C@H](Cc1ccccc1)N1C(=O)CSC1=Nc1cc(-n2c(=O)cc(C(F)(F)F)n(C)c2=O)c(F)cc1Cl [Compound 80, Ethyl α-benzyl-2-{{2-chloro-5-[3,6-dihydro-3-methyl-2,6-dioxo-4-(trifluoromethyl)-1(2H)-pyrimidinyl]-4-fluorophenyl}imino}-4-oxo-3-thiazolidineacetate, L-]",CASOB herbicidal rating,[1]; rate 0.0158 kg/ha,1.0
same,CASOB herbicidal rating,[1]; rate 0.0315 kg/ha,5.0
same,CASOB herbicidal rating,[1]; rate 0.0630 kg/ha,9.0
same,GALAP herbicidal rating,[2]; rate 0.0158 kg/ha,2.0
same,GALAP herbicidal rating,[2]; rate 0.0315 kg/ha,4.0
same,GALAP herbicidal rating,[2]; rate 0.0630 kg/ha,5.0
same,ZEAMX herbicidal rating,[3]; rate 0.0158 kg/ha,5.0
same,ZEAMX herbicidal rating,[3]; rate 0.0315 kg/ha,5.0
same,ZEAMX herbicidal rating,[3]; rate 0.0630 kg/ha,5.5
same,Preemergence herbicidal rating AMBEL,[4]; rate 0.0313 kg/ha,0.0
same,Preemergence herbicidal rating AMBEL,[4]; rate 0.0625 kg/ha,2.0
same,Preemergence herbicidal rating AMBEL,[4]; rate 0.1250 kg/ha,9.0
same,Preemergence herbicidal rating AMBEL,[4]; rate 0.2500 kg/ha,7.0
same,Preemergence herbicidal rating CHEAL,[5]; rate 0.0156 kg/ha,7.0
same,Preemergence herbicidal rating CHEAL,[5]; rate 0.0313 kg/ha,9.0
same,Preemergence herbicidal rating CHEAL,[5]; rate 0.0625 kg/ha,9.0
same,Preemergence herbicidal rating CHEAL,[5]; rate 0.1250 kg/ha,9.0
same,Preemergence herbicidal rating CHEAL,[5]; rate 0.2500 kg/ha,9.0
same,Preemergence herbicidal rating IPOHE,[6]; rate 0.0156 kg/ha,0.0
same,Preemergence herbicidal rating IPOHE,[6]; rate 0.0313 kg/ha,0.0
same,Preemergence herbicidal rating IPOHE,[6]; rate 0.0625 kg/ha,0.0
same,Preemergence herbicidal rating IPOHE,[6]; rate 0.1250 kg/ha,4.0
same,Preemergence herbicidal rating IPOHE,[6]; rate 0.2500 kg/ha,9.0
same,Preemergence herbicidal rating ORYSAT,[7]; rate 0.0156 kg/ha,0.0
same,Preemergence herbicidal rating ORYSAT,[7]; rate 0.0313 kg/ha,0.0
same,Preemergence herbicidal rating ORYSAT,[7]; rate 0.0625 kg/ha,0.0
same,Preemergence herbicidal rating ORYSAT,[7]; rate 0.1250 kg/ha,1.0
same,Preemergence herbicidal rating ORYSAT,[7]; rate 0.2500 kg/ha,1.0
same,Preemergence herbicidal rating TRZAWR,[8]; rate 0.0156 kg/ha,0.0
same,Preemergence herbicidal rating TRZAWR,[8]; rate 0.0313 kg/ha,0.0
same,Preemergence herbicidal rating TRZAWR,[8]; rate 0.0625 kg/ha,0.0
same,Preemergence herbicidal rating TRZAWR,[8]; rate 0.1250 kg/ha,2.0
same,Preemergence herbicidal rating TRZAWR,[8]; rate 0.2500 kg/ha,1.0
same,Preemergence herbicidal rating ZEAMX,[9]; rate 0.0156 kg/ha,0.0
same,Preemergence herbicidal rating ZEAMX,[9]; rate 0.0313 kg/ha,0.0
same,Preemergence herbicidal rating ZEAMX,[9]; rate 0.0625 kg/ha,1.0
same,Preemergence herbicidal rating ZEAMX,[9]; rate 0.1250 kg/ha,3.0
same,Preemergence herbicidal rating ZEAMX,[9]; rate 0.2500 kg/ha,3.0
same,ECHORC herbicidal effect rating,[10]; 0.0313 kg/ha,9.0
same,ECHORC herbicidal effect rating,[10]; 0.0625 kg/ha,9.0
same,ECHORC herbicidal effect rating,[10]; 0.1250 kg/ha,9.0
same,ECHORC herbicidal effect rating,[10]; 0.2500 kg/ha,9.0
same,CYPIR herbicidal effect rating,[11]; 0.0313 kg/ha,5.0
same,CYPIR herbicidal effect rating,[11]; 0.0625 kg/ha,7.0
same,CYPIR herbicidal effect rating,[11]; 0.1250 kg/ha,7.0
same,CYPIR herbicidal effect rating,[11]; 0.2500 kg/ha,7.0
same,CYPSE herbicidal effect rating,[12]; 0.0313 kg/ha,3.0
same,CYPSE herbicidal effect rating,[12]; 0.0625 kg/ha,3.0
same,CYPSE herbicidal effect rating,[12]; 0.1250 kg/ha,3.0
same,CYPSE herbicidal effect rating,[12]; 0.2500 kg/ha,4.0
same,Herbicidal rating ECHORC,[13]; [15],9.0
same,Herbicidal rating ECHORC,[13]; [16],9.0
same,Herbicidal rating ECHORC,[13]; [17],9.0
same,Herbicidal rating ECHORC,[13]; [18],9.0
same,Herbicidal rating CYPSE,[14]; [15],3.0
same,Herbicidal rating CYPSE,[14]; [16],3.0
same,Herbicidal rating CYPSE,[14]; [17],3.0
same,Herbicidal rating CYPSE,[14]; [18],4.0
"CCOC(=O)CN1C(=O)C(CC(=O)OC)S/C1=N/c1cc(-n2c(=O)cc(C(F)(F)F)n(C)c2=O)c(F)cc1Cl (centres unmarked) [Compound 54, 2-{{2-Chloro-5-[3,6-dihydro-3-methyl-2,6-dioxo-4-(trifluoromethyl)-1(2H)-pyrimidinyl]-4-fluorophenyl}imino}-4-oxo-3,5-thiazolidinediacetic acid, 3-ethyl methyl ester]",Postemergence herbicidal rating CASOB,[1]; Rate 0.0158 kg/ha,5.0
same,Postemergence herbicidal rating CASOB,[1]; Rate 0.0315 kg/ha,6.0
same,Postemergence herbicidal rating CASOB,[1]; Rate 0.0630 kg/ha,9.0
same,Postemergence herbicidal rating GALAP,[2]; Rate 0.0158 kg/ha,6.0
same,Postemergence herbicidal rating GALAP,[2]; Rate 0.0315 kg/ha,9.0
same,Postemergence herbicidal rating GALAP,[2]; Rate 0.0630 kg/ha,9.0
same,Postemergence herbicidal rating ZEAMX,[3]; Rate 0.0158 kg/ha,7.5
same,Postemergence herbicidal rating ZEAMX,[3]; Rate 0.0315 kg/ha,8.0
same,Postemergence herbicidal rating ZEAMX,[3]; Rate 0.0630 kg/ha,9.0
same,Preemergence herbicidal rating AMBEL,[4]; rate 0.0156 kg/ha,0.0
same,Preemergence herbicidal rating AMBEL,[4]; rate 0.0313 kg/ha,0.5
same,Preemergence herbicidal rating AMBEL,[4]; rate 0.0625 kg/ha,8.0
same,Preemergence herbicidal rating AMBEL,[4]; rate 0.1250 kg/ha,9.0
same,Preemergence herbicidal rating AMBEL,[4]; rate 0.2500 kg/ha,9.0
same,Preemergence herbicidal rating AMBEL,[4]; rate 0.5000 kg/ha,9.0
same,Preemergence herbicidal rating CHEAL,[5]; rate 0.0156 kg/ha,4.5
same,Preemergence herbicidal rating CHEAL,[5]; rate 0.0313 kg/ha,9.0
same,Preemergence herbicidal rating CHEAL,[5]; rate 0.0625 kg/ha,9.0
same,Preemergence herbicidal rating CHEAL,[5]; rate 0.1250 kg/ha,9.0
same,Preemergence herbicidal rating CHEAL,[5]; rate 0.2500 kg/ha,9.0
same,Preemergence herbicidal rating CHEAL,[5]; rate 0.5000 kg/ha,9.0
same,Preemergence herbicidal rating IPOHE,[6]; rate 0.0156 kg/ha,1.5
same,Preemergence herbicidal rating IPOHE,[6]; rate 0.0313 kg/ha,6.0
same,Preemergence herbicidal rating IPOHE,[6]; rate 0.0625 kg/ha,9.0
same,Preemergence herbicidal rating IPOHE,[6]; rate 0.1250 kg/ha,7.5
same,Preemergence herbicidal rating IPOHE,[6]; rate 0.2500 kg/ha,9.0
same,Preemergence herbicidal rating IPOHE,[6]; rate 0.5000 kg/ha,9.0
same,Preemergence herbicidal rating ORYSAT,[7]; rate 0.0156 kg/ha,0.0
same,Preemergence herbicidal rating ORYSAT,[7]; rate 0.0313 kg/ha,0.0
same,Preemergence herbicidal rating ORYSAT,[7]; rate 0.0625 kg/ha,1.0
same,Preemergence herbicidal rating ORYSAT,[7]; rate 0.1250 kg/ha,2.0
same,Preemergence herbicidal rating ORYSAT,[7]; rate 0.2500 kg/ha,4.5
same,Preemergence herbicidal rating ORYSAT,[7]; rate 0.5000 kg/ha,6.0
same,Preemergence herbicidal rating TRZAWR,[8]; rate 0.0156 kg/ha,0.0
same,Preemergence herbicidal rating TRZAWR,[8]; rate 0.0313 kg/ha,0.0
same,Preemergence herbicidal rating TRZAWR,[8]; rate 0.0625 kg/ha,0.0
same,Preemergence herbicidal rating TRZAWR,[8]; rate 0.1250 kg/ha,1.0
same,Preemergence herbicidal rating TRZAWR,[8]; rate 0.2500 kg/ha,3.0
same,Preemergence herbicidal rating ZEAMX,[9]; rate 0.0156 kg/ha,0.0
same,Preemergence herbicidal rating ZEAMX,[9]; rate 0.0313 kg/ha,1.0
same,Preemergence herbicidal rating ZEAMX,[9]; rate 0.0625 kg/ha,1.0
same,Preemergence herbicidal rating ZEAMX,[9]; rate 0.1250 kg/ha,2.0
same,Preemergence herbicidal rating ZEAMX,[9]; rate 0.2500 kg/ha,4.0
same,Preemergence herbicidal rating ZEAMX,[9]; rate 0.5000 kg/ha,3.0
same,Herbicidal rating ECHORC,[10]; 0.0313 kg/ha,5.0
same,Herbicidal rating ECHORC,[10]; 0.0625 kg/ha,5.0
same,Herbicidal rating ECHORC,[10]; 0.1250 kg/ha,7.0
same,Herbicidal rating ECHORC,[10]; 0.2500 kg/ha,9.0
same,Herbicidal rating CYPIR,[11]; 0.0313 kg/ha,0.0
same,Herbicidal rating CYPIR,[11]; 0.0625 kg/ha,4.0
same,Herbicidal rating CYPIR,[11]; 0.1250 kg/ha,4.0
same,Herbicidal rating CYPIR,[11]; 0.2500 kg/ha,4.0
same,Herbicidal rating CYPSE,[12]; 0.0313 kg/ha,0.0
same,Herbicidal rating CYPSE,[12]; 0.0625 kg/ha,0.0
same,Herbicidal rating CYPSE,[12]; 0.1250 kg/ha,0.0
same,Herbicidal rating CYPSE,[12]; 0.2500 kg/ha,4.0
same,Herbicidal rating ECHORC,[13]; [19],5.0
same,Herbicidal rating ECHORC,[13]; [20],5.0
same,Herbicidal rating ECHORC,[13]; [21],7.0
same,Herbicidal rating ECHORC,[13]; [22],9.0
same,Herbicidal rating CYPSE,[14]; [19],0.0
same,Herbicidal rating CYPSE,[14]; [20],0.0
same,Herbicidal rating CYPSE,[14]; [21],0.0
same,Herbicidal rating CYPSE,[14]; [22],4.0
